{"source": "paper PMC11456916", "about": "“A screen for cell envelope stress uncovers an inhibitor of prolipoprotein diacylglyceryl transferase, Lgt, in Escherichiacoli” (iScience, 2024)", "key": {"HEK293t cells": {"system": "HEK293t cells", "assay": "In vitro cytotoxicity (PrestoBlue cell viability)", "format": "cell-based, human", "conditions": "24 h", "procedure": "To determine the haemolytic activity and cytotoxicity of MAC-0452936, pooled human blood and HEK293t cells were used, respectively. Fresh pooled human blood for haemolytic assay was acquired from […] Technologies, whilst, HEK293t cells were originally acquired from ATCC (Cat# CRL-3216) and were regularly grown in […] (DMEM) with 10% fetal bovine serum (FBS), L-glutamine and incubated at 37°C. Cell lines are regularly tested for mycoplasma contamination.\nThe cytotoxicity of MAC-0452936 on HEK293t cells was determined by performing a cell viability assay using PrestoBlue Cell Viability Reagent (Invitrogen). 3 × 10^4 cells/mL were seeded in tissue culture-treated 96-well plates (Nunc; white opaque with clear bottom) in […] (DMEM) with 10% fetal bovine serum (FBS), L-glutamine and incubated at 37°C for 24 h in 5% CO2. The cells were then treated with varying concentrations of MAC-0452936 and similar percentage of DMSO as in drug (solvent control) for 24 h at 37°C. PrestoBlue reagent (20 μL) was added to the wells and incubated for 1 h in the CO2 incubator before reading the plates at excitation/emission wavelength of 560/590 nm on the Biotek Synergy Neo2 plate reader. Fluorescence values were expressed as percentage and inhibition with respect to solvent control was calculated."}, "[1]": {"system": "E. coli ΔlgtΔtolC-pore pCHAP9231", "assay": "MIC with arabinose-titrated lgt expression", "format": "cell-based", "conditions": "lgt expression driven solely by arabinose from pCHAP9231", "source_text": "We next turned to genetic approaches to confirm the mechanism of action of MAC-0452936. […] To that end, we screened the E. coli CRISPRi collection in the ΔtolC-pore genetic background with a sub-inhibitory concentration of MAC-0452936 and measured the fitness of all 356 CRISPRi mutants (Figure 4C and Data S4). […] Depletion of Lgt by CRISPRi provided supporting evidence that MAC-0452936 targeted Lgt in E. coli; however, we sought to confirm this observation using a parallel genetic approach. We hypothesized that MAC-0452936 potency would also be affected by high-copy expression of lgt. To that end, we introduced either an arabinose inducible copy of lgt supplied on the pCHAP9231 plasmid[48] or the pBAD19s plasmid as a control into E. coli ΔtolC-pore and tested the potency of MAC-0452936 (Figure 4E). Induction of lgt expression with arabinose suppressed the activity of MAC-0452936 by about 8-fold. […] To test this hypothesis, we constructed E. coli ΔlgtΔtolC-pore with pCHAP9231[48] so that lgt expression was driven solely by arabinose from the plasmid. […] To test this observation with MAC-0452936, we introduced an lpp deletion into our screening strain E. coli ΔtolC-pore and assessed the activity of our Lgt inhibitor in this mutant background. […]"}, "E. coli ΔtolC-pore": {"system": "E. coli ΔtolC-pore", "assay": "Time-kill assay", "format": "cell-based", "source_text": "As Lgt is found at the inner membrane of Gram-negative bacteria, we sought to rule out physical perturbation of the membrane as the cause of the antibacterial activity observed for MAC-0452936. […] To that end, we treated both non-growing E. coli ΔtolC-pore in a nutrient-deplete medium (PBS) and actively growing E. coli ΔtolC-pore in a nutrient-replete medium (LB) with varying concentrations of MAC-0452936 and enumerated colony-forming units (CFUs) at different time points (Figure S9A). […] Indeed, MAC-0452936 reduced the bacterial counts of E. coli ΔtolC-pore to the limit of detection after 6 h at compound concentrations greater than 2 μg/mL. We then tested MAC-0452936 for hemolytic activity against human-derived red blood cells and cytotoxicity against HEK-293 cells. […] However, we did observe a modest decrease in the viability of HEK-293 cells when treated with concentrations of MAC-0452936 greater than 8 μg/mL.\nE. coli ΔtolC-pore was grown overnight in LB broth. For killing in nutrient-deplete media, overnight culture was pelleted by centrifugation at 5,000g for 30 min, and resuspended in sterile PBS buffer. Cells in PBS were added to a microwell plate containing different concentrations of MAC-0452936 (100 μL final volume), and incubated for the specified time at 37°C with shaking. At the specified time points, cultures were pelleted by centrifugation 5,000g for 30 min at 4°C, then 10-fold serially diluted in PBS before being plated on LB agar for CFU enumeration. For killing of actively growing cells in nutrient replete media, overnight culture of E. coli ΔtolC-pore was diluted 1/1000 into fresh LB broth and grown at 37°C with shaking to the early-log phase of growth (∼2.5 h, OD600 ∼0.2). Cells in LB broth were then added to a microwell plate containing different concentrations of MAC-0452936 (100 μL final volume), and incubated for the specified time at 37°C with shaking. At the specified time points, cultures were pelleted by centrifugation 5,000g for 30 min at 4°C, then 10-fold serially diluted in PBS before being plated on LB agar for CFU enumeration."}}, "note": "Entries after “also recorded” stand apart in the source; their conditions may differ."}
{"compound": "COc1ccc(C(=O)O/N=C(\\c2cccs2)C(C)(C)C)cc1", "note": "[MAC-0452936, (Z)-2-Pivaloylthiophene O-(4-methoxybenzoyl) oxime]", "values": [{"measurement": "concentrations giving a modest decrease in the viability of HEK-293 cells", "setting": "HEK293t cells", "result": "greater than 8 μg/mL"}, {"measurement": "cytotoxicity to HEK-293 cells", "setting": "HEK293t cells; at MIC concentrations", "result": "did not observe"}, {"measurement": "change of MIC with increasing arabinose concentrations", "setting": "[1]", "result": "dose-dependent increase in the MIC; also recorded: increase with increasing"}, {"measurement": "compound concentrations that reduced bacterial counts to the limit of detection", "setting": "E. coli ΔtolC-pore; LB, after 6 h", "result": "greater than 2 μg/mL"}, {"measurement": "killing of non-growing bacteria", "setting": "E. coli ΔtolC-pore; nutrient-deplete medium (PBS), CFU", "result": "could not kill non-growing bacteria"}, {"measurement": "killing of actively growing bacteria", "setting": "E. coli ΔtolC-pore; nutrient-replete medium (LB), CFU", "result": "potent bactericidal activity"}]}
